Experimental findings from ChEMBL document CHEMBL4311960, “Two optimized antimicrobial peptides with therapeutic potential for clinical antibiotic-resistant Staphylococcus aureus” (Eur J Med Chem, 2019) are described below.

For orientation: MIC means the lowest concentration found to suppress growth.

Converted amounts (≈) assume the structure as drawn. Where only a bound is given, the exact number is not on record here.

Common to all, as to assay type: functional
For experiment [1], the system named is Staphylococcus aureus. Kind of experiment: Antibacterial activity against methicillin-resistant Staphylococcus aureus ATCC 19900 assessed as reduction in bacterial growth incubated for 24 hrs by serial dilution method. Particulars: ATCC 19900, 24 h.
The subject of experiment [2] is Staphylococcus aureus. As to the kind of experiment: Antibacterial activity against methicillin-resistant Staphylococcus aureus ATCC 19102 assessed as reduction in bacterial growth incubated for 24 hrs by serial dilution method. Particulars: ATCC 19102, 24 h.
In experiment [3] the test system is Staphylococcus aureus. Kind of experiment: Antibacterial activity against methicillin-resistant Staphylococcus aureus ATCC 18858 assessed as reduction in bacterial growth incubated for 24 hrs by serial dilution method. Conditions: ATCC 18858, 24 h.
In experiment [4] the test system is Staphylococcus aureus. Kind of experiment: Antibacterial activity against Staphylococcus aureus ATCC 25923 assessed as reduction in bacterial growth incubated for 24 hrs by serial dilution method. Particulars: ATCC 25923, 24 h, read-out: MIC.
In experiment [5] the test system is Staphylococcus aureus. As to the kind of experiment: Antibacterial activity against methicillin-resistant Staphylococcus aureus ATCC 18908 assessed as reduction in bacterial growth incubated for 24 hrs by serial dilution method. Conditions: ATCC 18908, 24 h.
For experiment [6], the system named is Staphylococcus aureus. As to the kind of experiment: Ratio of MIC for resistant Staphylococcus aureus ATCC 29213 for 15 days to MIC for Staphylococcus aureus ATCC 29213 for 24 hrs.
For experiment [7], the system named is Staphylococcus aureus. As to the kind of experiment: Antibacterial activity against methicillin-resistant Staphylococcus aureus ATCC 18466 assessed as reduction in bacterial growth incubated for 24 hrs by serial dilution method. Conditions: ATCC 18466, 24 h, read-out: MIC.
The subject of experiment [8] is Staphylococcus aureus. As to the kind of experiment: Antibacterial activity against methicillin-resistant Staphylococcus aureus ATCC 18567 assessed as reduction in bacterial growth incubated for 24 hrs by serial dilution method. Conditions: ATCC 18567, 24 h.
The subject of experiment [9] is Staphylococcus aureus. As to the kind of experiment: Antibacterial activity against methicillin-resistant Staphylococcus aureus ATCC 19167 assessed as reduction in bacterial growth incubated for 24 hrs by serial dilution method. Conditions: ATCC 19167, 24 h.
The subject of experiment [10] is Staphylococcus aureus. As to the kind of experiment: Antibacterial activity against Staphylococcus aureus ATCC 25923 assessed as reduction in bacterial growth at MIC measured after 15 passages.
Experiment [11] deals with Staphylococcus aureus. As to the kind of experiment: Antibacterial activity against methicillin-resistant Staphylococcus aureus ATCC 19494 assessed as reduction in bacterial growth incubated for 24 hrs by serial dilution method. Conditions: ATCC 19494, 24 h.
Experiment [12] concerns Staphylococcus aureus. Kind of experiment: Antibacterial activity against methicillin-resistant Staphylococcus aureus ATCC 19041 assessed as reduction in bacterial growth incubated for 24 hrs by serial dilution method. Conditions: ATCC 19041, 24 h.
Experiment [13] relates to Staphylococcus aureus. Kind of experiment: Antibacterial activity against Staphylococcus aureus ATCC 29213 assessed as reduction in bacterial growth at MIC measured after 15 passages.
Experiment [14] concerns Staphylococcus aureus. As to the kind of experiment: Antibacterial activity against methicillin-resistant Staphylococcus aureus ATCC 18878 assessed as reduction in bacterial growth incubated for 24 hrs by serial dilution method. Particulars: ATCC 18878, 24 h.
In experiment [15] the test system is Staphylococcus aureus. As to the kind of experiment: Antibacterial activity against Staphylococcus aureus ATCC 8325.4 assessed as reduction in bacterial growth incubated for 24 hrs by serial dilution method. Particulars: ATCC 8325.4, 24 h.
The test system of experiment [16] is Staphylococcus aureus. As to the kind of experiment: Antibacterial activity against methicillin-resistant Staphylococcus aureus ATCC 19047 assessed as reduction in bacterial growth incubated for 24 hrs by serial dilution method. Particulars: ATCC 19047, 24 h.
Experiment [17] relates to Staphylococcus aureus. Kind of experiment: Antibacterial activity against methicillin-resistant Staphylococcus aureus ATCC 19916 assessed as reduction in bacterial growth incubated for 24 hrs by serial dilution method. Particulars: ATCC 19916, 24 h.
Experiment [18] concerns Staphylococcus aureus. As to the kind of experiment: Antibacterial activity against methicillin-resistant Staphylococcus aureus ATCC 19952 assessed as reduction in bacterial growth incubated for 24 hrs by serial dilution method. Particulars: ATCC 19952, 24 h.
For experiment [19], the system named is Staphylococcus aureus. As to the kind of experiment: Antibacterial activity against methicillin-resistant Staphylococcus aureus ATCC 19498 assessed as reduction in bacterial growth incubated for 24 hrs by serial dilution method. Conditions: ATCC 19498, 24 h.
Experiment [20] has as its system Staphylococcus aureus. As to the kind of experiment: Antibacterial activity against methicillin-resistant Staphylococcus aureus ATCC 19423 assessed as reduction in bacterial growth incubated for 24 hrs by serial dilution method. Conditions: ATCC 19423, 24 h.
For experiment [21], the system named is Staphylococcus aureus. Kind of experiment: Antibacterial activity against Staphylococcus aureus ATCC 29213 assessed as reduction in bacterial growth incubated for 24 hrs by serial dilution method. Conditions: ATCC 29213, 24 h.
Experiment [22] relates to Staphylococcus aureus. Kind of experiment: Ratio of MIC for resistant Staphylococcus aureus ATCC 25923 for 15 days to MIC for Staphylococcus aureus ATCC 25923 for 24 hrs.
Experiment [23] relates to Staphylococcus aureus. Kind of experiment: Antibacterial activity against Staphylococcus aureus ATCC 6538 assessed as reduction in bacterial growth incubated for 24 hrs by serial dilution method. Conditions: ATCC 6538, 24 h.
The subject of experiment [24] is Staphylococcus aureus. As to the kind of experiment: Antibacterial activity against methicillin-resistant Staphylococcus aureus ATCC 18475 assessed as reduction in bacterial growth incubated for 24 hrs by serial dilution method. Particulars: ATCC 18475, 24 h.

Turning to `Cc1onc(-c2ccccc2)c1C(=O)N[C@@H]1C(=O)N2[C@@H]1SC(C)(C)[C@@H]2C(=O)O` [OXACILLIN], the MIC in [1] was greater than 1200 µg/mL; in [2], greater than 1200 µg/mL; in experiment [3], greater than 1200 µg/mL; in experiment [4], 0.5 µg/mL (≈ 1.25 µM); in [5], greater than 1200 µg/mL; in experiment [7] it was greater than 1200 µg/mL. Also, the minimal inhibitory concentration (MIC) was greater than 1200 µg/mL in experiment [8]; greater than 1200 µg/mL in [9]; greater than 1200 µg/mL in experiment [11]; greater than 1200 µg/mL in [12]; greater than 1200 µg/mL in [14]; 0.5 µg/mL (≈ 1.25 µM) in experiment [15]. The MIC in [16] is greater than 1200 µg/mL; in [17], greater than 1200 µg/mL; in [18] it was greater than 1200 µg/mL; in experiment [19], greater than 1200 µg/mL; in experiment [20] it was greater than 1200 µg/mL; in experiment [21], 1 µg/mL (≈ 2.49 µM). For the same compound, the results for the MIC in [23] and in experiment [24] were 0.5 µg/mL (≈ 1.25 µM) and greater than 1200 µg/mL, respectively. The Ratio in [6] and in [22] was 8 in each case. In addition, the “fold change (FC)” value in [10] and in [13] was 8 in each case.
